Read-outs that look alike come from different tables or passages of the source.
Key:
human 5-HT2A receptor = human 5-HT2A receptor (Homo sapiens (Human), UniProt P28223); assay: Radioligand binding assay, [3H]-ketanserin, human 5-HT2A receptor
Procedure, shortened: (§1)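 Membranes from transiently transfected HEK293 EBNA cells were incubated 1 h at RT with ten compound concentrations (10 μM-0.1 nM) and radioligand: 0.5 nM [3H]-spiperone for D3 (Tris/NaCl/Mg/Ca buffer, pH 7.4) or 1.1 nM [3H]-ketanserin for 5-HT2A (Tris/MgCl2/EGTA, pH 7.4).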

human D2 receptor = human D2 receptor (Homo sapiens (Human), UniProt P14416); assay: Radioligand binding assay, [3H]-spiperone, human D2 receptor; settings: membranes of HEK293 EBNA cells expressing human D2; 0.7 nM [3H]-spiperone
human D2 receptor, sequence (P14416 whole entry): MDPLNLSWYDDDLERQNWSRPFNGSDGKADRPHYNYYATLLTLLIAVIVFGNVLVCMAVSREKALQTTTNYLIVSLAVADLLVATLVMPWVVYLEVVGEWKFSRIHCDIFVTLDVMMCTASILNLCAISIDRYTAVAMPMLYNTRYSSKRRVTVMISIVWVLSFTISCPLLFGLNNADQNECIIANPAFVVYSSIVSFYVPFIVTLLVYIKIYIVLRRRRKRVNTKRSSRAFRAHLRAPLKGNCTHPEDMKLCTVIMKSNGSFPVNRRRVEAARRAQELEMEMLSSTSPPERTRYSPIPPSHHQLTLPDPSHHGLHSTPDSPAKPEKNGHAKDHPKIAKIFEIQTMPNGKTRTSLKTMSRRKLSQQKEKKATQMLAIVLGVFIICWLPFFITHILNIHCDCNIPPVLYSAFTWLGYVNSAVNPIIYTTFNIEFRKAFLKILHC
Procedure, shortened: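 Membranes from HEK293 EBNA cells transiently expressing human D2 were incubated 1 h at RT with ~0.7 nM [3H]-spiperone and ten compound concentrations (10 μM–0.1 nM) in Tris buffer with NaCl, MgCl2, KCl, CaCl2, EDTA, pH 7.4.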

human D3 receptor = human D3 receptor (Homo sapiens (Human), UniProt P35462); assay: Radioligand binding assay, [3H]-spiperone, human D3 receptor; settings: membranes of HEK293 EBNA cells expressing human D3; 0.5 nM [3H]-spiperone
human D3 receptor, sequence (P35462 whole entry): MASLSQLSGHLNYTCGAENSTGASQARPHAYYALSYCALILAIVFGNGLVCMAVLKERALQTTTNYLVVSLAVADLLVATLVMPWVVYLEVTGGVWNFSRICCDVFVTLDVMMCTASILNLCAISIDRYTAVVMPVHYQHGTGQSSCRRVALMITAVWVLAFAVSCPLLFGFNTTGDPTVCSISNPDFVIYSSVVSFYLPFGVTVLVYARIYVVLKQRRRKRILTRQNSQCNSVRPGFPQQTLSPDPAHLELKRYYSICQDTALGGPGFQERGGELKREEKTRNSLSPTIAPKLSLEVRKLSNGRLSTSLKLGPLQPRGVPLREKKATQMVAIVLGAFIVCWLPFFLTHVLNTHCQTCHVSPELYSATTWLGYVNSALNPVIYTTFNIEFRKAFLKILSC
Procedure, shortened: as §1

[1] = membranes of HEK293 EBNA cells expressing human 5-HT2A, 1.1 nM [3H]-ketanserin

human 5-HT2A receptor, sequence (P28223 whole entry): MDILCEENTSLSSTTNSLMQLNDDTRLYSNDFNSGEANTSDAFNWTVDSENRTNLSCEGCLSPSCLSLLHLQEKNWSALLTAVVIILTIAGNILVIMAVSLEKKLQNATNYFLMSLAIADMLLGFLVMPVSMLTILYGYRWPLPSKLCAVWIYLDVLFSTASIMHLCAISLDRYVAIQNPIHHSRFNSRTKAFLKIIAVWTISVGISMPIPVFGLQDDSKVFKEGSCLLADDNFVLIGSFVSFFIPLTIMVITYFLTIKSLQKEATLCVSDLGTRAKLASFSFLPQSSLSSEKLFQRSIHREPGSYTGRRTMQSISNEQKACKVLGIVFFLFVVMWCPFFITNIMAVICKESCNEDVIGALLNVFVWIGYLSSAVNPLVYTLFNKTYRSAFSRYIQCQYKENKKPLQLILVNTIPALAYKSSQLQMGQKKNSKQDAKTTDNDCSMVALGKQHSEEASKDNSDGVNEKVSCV

Compound	Ki (human 5-HT2A receptor) [nM]	melting point [°C]	Ki (human D2 receptor) [nM]	Ki (human D3 receptor) [nM]	Ki (human 5-HT2A receptor; [1]) [nM]
CC(C)(C)c1ccc(C(=O)N[C@H]2CC[C@H](CCN3CCN(c4nccc5c4CCO5)CC3)CC2)cc1 [Example 131, trans-4-tert-Butyl-N-(4-{2-[4-(2,3-dihydro-furo[3,2-c]pyridin-4-yl)-piperazin-1-yl]-ethyl}-cyclohexyl)-benzamide]	66.7	186.5	1660	147	
O=C(N[C@H]1CC[C@H](CCN2CCN(c3nccc4c3CCO4)CC2)CC1)c1ccc(-n2cccc2)cc1 [Example 133, trans-N-(4-{2-[4-(2,3-Dihydro-furo[3,2-c]pyridin-4-yl)-piperazin-1-yl]-ethyl}-cyclohexyl)-4-pyrrol-1-yl-benzamide]		234	163	24.4	24.2
O=C(N[C@H]1CC[C@H](CCN2CCN(c3nccc4c3CCO4)CC2)CC1)c1ccc(-c2ccccc2)cc1 [Example 134, Biphenyl-4-carboxylic acid trans-(4-{2-[4-(2,3-dihydro-furo[3,2-c]pyridin-4-yl)-piperazin-1-yl]-ethyl}-cyclohexyl)-amide]		232	1130	18.6	23.4
CO[C@H](C)C(=O)N[C@H]1CC[C@H](CCN2CCN(c3nccc4c3CCO4)CC2)CC1 [Example 135, trans-(R)—N-(4-{2-[4-(2,3-Dihydro-furo[3,2-c]pyridin-4-yl)-piperazin-1-yl]-ethyl}-cyclohexyl)-2-methoxy-propionamide]		159	680	109	7
CC(C)(C)Oc1ccc(C(=O)N[C@H]2CC[C@H](CCN3CCN(c4nccc5c4CCO5)CC3)CC2)cc1 [Example 136, trans-4-tert-Butoxy-N-(4-{2-[4-(2,3-dihydro-furo[3,2-c]pyridin-4-yl)-piperazin-1-yl]-ethyl}-cyclohexyl)-benzamide]		200	3160	69.5	41.4
CO[C@@H](C)C(=O)N[C@H]1CC[C@H](CCN2CCN(c3nccc4c3CCO4)CC2)CC1 [Example 137, trans-(S)—N-(4-{2-[4-(2,3-Dihydro-furo[3,2-c]pyridin-4-yl)-piperazin-1-yl]-ethyl}-cyclohexyl)-2-methoxy-propionamide]		158.5	788	252	20.1
O=S(=O)(N[C@H]1CC[C@H](CCN2CCN(c3nccc4c3CCO4)CC2)CC1)c1ccccc1 [Example 138, trans-N-(4-{2-[4-(2,3-Dihydro-furo[3,2-c]pyridin-4-yl)-piperazin-1-yl]-ethyl}-cyclohexyl)-benzenesulfonamide]		168.5	243	15.5	70.5
COC(C)CC(=O)N[C@H]1CC[C@H](CCN2CCN(c3nccc4c3CCO4)CC2)CC1 (stereo partly drawn) [Example 139, trans-N-(4-{2-[4-(2,3-Dihydro-furo[3,2-c]pyridin-4-yl)-piperazin-1-yl]-ethyl}-cyclohexyl)-3-methoxy-butyramide]	30.4	167	801	40.6	
CC[C@@H](O)CC(=O)N[C@H]1CC[C@H](CCN2CCN(c3nccc4c3CCO4)CC2)CC1 [Example 140, (R)-3-Hydroxy-pentanoic acid trans-(4-{2-[4-(2,3-dihydro-furo[3,2-c]pyridin-4-yl)-piperazin-1-yl]-ethyl}-cyclohexyl)-amide]	42	161	843	44.4	
O=C(CC1(O)CCC1)N[C@H]1CC[C@H](CCN2CCN(c3nccc4c3CCO4)CC2)CC1 [Example 141, trans-N-(4-{2-[4-(2,3-Dihydro-furo[3,2-c]pyridin-4-yl)-piperazin-1-yl]-ethyl}-cyclohexyl)-2-(1-hydroxy-cyclobutyl)-acetamide]	22.5	155	409	25.8	

— patent US8586579B2, “Anellated pyridine compounds” (Hoffmann-La Roche Inc., priority 2010, dated 2013)
